IC50 and IC90 data for 29 compounds are collected here from ChEMBL document CHEMBL4483862, “Open-source discovery of chemical leads for next-generation chemoprotective antimalarials” (2018).

The assay concerns Plasmodium berghei. The experiment in a line: Luciferase/luciferin-expressing antifolate-resistant parasites were used to infect a culture of HepG2 cells that were pre-incubated with compounds. Infected hepatocytes emit light due to the luciferase reaction. Assay results are presented as the percent inhibition of light emission compared to control. […]. In kind it is functional. To be noted: sporozoite; for IC90: read-out: LUCIFERASE INFECTION ASSAY - IC90.

The structures appear in SMILES notation.

By IC50 is commonly meant the point on the concentration scale where inhibition reaches its midpoint. One may read the IC90 as the point of the concentration-response curve where the effect stands at 90%. As for `Cc1cc(C)nc(-n2nc(C)cc2NC(=O)CN2CCc3ccccc3C2)n1`, the IC90 is greater than 10 µM. Moreover, the IC50 (HEPG2TOX_HILL_SLOPE 7.28, HEPG2TOX_R_SQUARED 0.662, read-out: LUCIFERASE INFECTION ASSAY - IC50) is greater than 10 µM.

Regarding `CCCNC(=O)c1c(NC(=O)c2ccc(F)cc2F)nc2ccccn12`, the IC90 stood at 8.71 µM. For the same compound, the IC50 (HEPG2TOX_HILL_SLOPE 7.34, HEPG2TOX_R_SQUARED 0.716, PBLUC_HILL_SLOPE 2.53, PBLUC_R_SQUARED 0.731, read-out: LUCIFERASE INFECTION ASSAY - IC50) was determined as 3.66 µM.

Turning to `Cc1ccc(NC(=O)/C=C/c2c(C)nn(CC(C)C)c2Cl)cc1`, the IC90 was greater than 10 µM. Besides, for the setting “HEPG2TOX_HILL_SLOPE 7.42, HEPG2TOX_R_SQUARED 0.403, read-out: LUCIFERASE INFECTION ASSAY - IC50”, the IC50 is greater than 10 µM.

Regarding `CCOC(=O)c1sc2nc(CSc3ccccc3)nc(NCC(O)CN(C)C)c2c1C` (stereo not drawn), the IC90 is greater than 10 µM. Besides, the IC50 (HEPG2TOX_HILL_SLOPE 7.33, HEPG2TOX_R_SQUARED 0.474, PBLUC_HILL_SLOPE 9.13, PBLUC_R_SQUARED 0.72, read-out: LUCIFERASE INFECTION ASSAY - IC50) is 9.05 µM.

For `CC(=O)N(/N=C/c1ccc(F)cc1)C1=NN(C(C)=O)C(c2ccc(F)cc2)S1` (stereo not drawn), the IC90 is greater than 8.2 µM. Moreover, under “HEPG2TOX_HILL_SLOPE 7.43, HEPG2TOX_R_SQUARED 0.382, read-out: LUCIFERASE INFECTION ASSAY - IC50”, the IC50 was greater than 8.2 µM.

With `CCOC(=O)c1ccc(N2C(=O)c3ccccc3C(C=NNC(=O)Cc3ccc(F)cc3)C2=O)cc1` (stereo not drawn), the IC90 was greater than 10 µM. Further, the IC50 (HEPG2TOX_HILL_SLOPE 7.51, HEPG2TOX_R_SQUARED 0.875, PBLUC_HILL_SLOPE 2.71, PBLUC_R_SQUARED 0.377, read-out: LUCIFERASE INFECTION ASSAY - IC50) was 8.78 µM.

Turning to `Cc1ccc(CSc2ccc([N+](=O)[O-])c3nonc23)cc1`, the IC90 is greater than 11 µM. Besides, the IC50 (HEPG2TOX_HILL_SLOPE 7.3, HEPG2TOX_R_SQUARED 0.39, read-out: LUCIFERASE INFECTION ASSAY - IC50) is greater than 11 µM.

For `COc1cc(C)c(C(c2ccc(N(C)C)cc2)c2ccc(N(C)C)cc2)cc1C`, the IC90 is 6.45 µM. Moreover, the IC50 (HEPG2TOX_HILL_SLOPE 7.41, HEPG2TOX_R_SQUARED 0.305, PBLUC_HILL_SLOPE 5.23, PBLUC_R_SQUARED 0.705, read-out: LUCIFERASE INFECTION ASSAY - IC50) worked out at 4.24 µM.

In the case of `CC(C)(C)c1ccc(-c2nnc(SCC(=O)Nc3sccc3C(N)=O)n2C2CCCC2)cc1`, the IC90 was greater than 10 µM. The IC50 (HEPG2TOX_HILL_SLOPE 7.51, 0.572, HEPG2TOX_R_SQUARED 0.693, 0.490, PBLUC_HILL_SLOPE 1.93, PBLUC_R_SQUARED 0.568, read-out: LUCIFERASE INFECTION ASSAY - IC50) was found to be 4.92 µM.

For the compound `COc1cc(Br)c(/C=C2/C(=O)Nc3cc(Cl)ccc32)cc1O`, the IC90 was greater than 10 µM. For the setting “HEPG2TOX_HILL_SLOPE 7.49, HEPG2TOX_R_SQUARED 0.517, PBLUC_HILL_SLOPE 14.1, PBLUC_R_SQUARED 0.1, read-out: LUCIFERASE INFECTION ASSAY - IC50”, the IC50 worked out at 9.39 µM.

As for `O=C1N=C(Nc2cccnc2)S/C1=C/c1ccc2ncccc2c1`, the IC90 came out at 9.5 µM. In addition, the IC50 (HEPG2TOX_HILL_SLOPE 7.45, HEPG2TOX_R_SQUARED 0.476, PBLUC_HILL_SLOPE 2.82, PBLUC_R_SQUARED 0.798, read-out: LUCIFERASE INFECTION ASSAY - IC50) turned out to be 4.36 µM.

Take `O=C(Nc1ccc(Cl)cc1)Nc1ccccc1SCc1ncc(C(F)(F)F)cc1Cl`: the IC90 is greater than 6.99 µM. In addition, the IC50 (HEPG2TOX_HILL_SLOPE 7.43, HEPG2TOX_R_SQUARED 0.87, PBLUC_HILL_SLOPE 2.47, PBLUC_R_SQUARED 0.266, read-out: LUCIFERASE INFECTION ASSAY - IC50) was found to be 4.63 µM.

`O=C(CNc1cccc(C(F)(F)F)c1)N/N=C/c1c2ccccc2c(Cl)c2ccccc12`: the 90% effect concentration (IC90) was greater than 10 µM. In addition, the half-maximal inhibitory concentration (IC50) (HEPG2TOX_HILL_SLOPE 7.3, HEPG2TOX_R_SQUARED 0.234, PBLUC_HILL_SLOPE 3.59, PBLUC_R_SQUARED 0.507, read-out: LUCIFERASE INFECTION ASSAY - IC50) is 6.19 µM.

Regarding `c1ccc(CCNc2nccc3nc(-c4ccccc4)[nH]c23)cc1`, the IC90 stood at 4.09 µM. The IC50 (HEPG2TOX_HILL_SLOPE 7.38, HEPG2TOX_R_SQUARED 0.753, PBLUC_HILL_SLOPE 1.8, PBLUC_R_SQUARED 0.435, read-out: LUCIFERASE INFECTION ASSAY - IC50) amounted to 1.21 µM.

On to `O=C(Nc1ccc(Cl)c(Cl)c1)Nc1c(-c2ccccc2)nc2ccccn12`, for which the IC90 amounted to 4.52 µM. Also, where the note is “HEPG2TOX_HILL_SLOPE 7.35, HEPG2TOX_R_SQUARED 0.457, PBLUC_HILL_SLOPE 10, PBLUC_R_SQUARED 0.727, read-out: LUCIFERASE INFECTION ASSAY - IC50”, the IC50 was determined as 3.63 µM.

For the compound `COCC(C)Nc1ncnc2scc(-c3ccc(OC)cc3)c12` (stereo not drawn), the IC90 turned out to be 4.03 µM. Where the note is “HEPG2TOX_HILL_SLOPE 7.42, HEPG2TOX_R_SQUARED 0.779, PBLUC_HILL_SLOPE 12.3, PBLUC_R_SQUARED 0.781, read-out: LUCIFERASE INFECTION ASSAY - IC50”, the IC50 is 3.37 µM.

With `O=C(N/N=C/c1cc(Cl)ccc1O)N/N=C/c1cc(Cl)ccc1O`, the IC90 was greater than 8.99 µM. Further, the 50% inhibitory concentration (IC50) (HEPG2TOX_HILL_SLOPE 7.47, HEPG2TOX_R_SQUARED 0.53, read-out: LUCIFERASE INFECTION ASSAY - IC50) was greater than 8.99 µM.

Turning to `COc1ccc(C(C)C)cc1-c1cnc(N)c(-c2cccc(C(F)(F)F)c2)c1`, the IC90 was greater than 8.54 µM. Also, the IC50 (HEPG2TOX_HILL_SLOPE 7.33, HEPG2TOX_R_SQUARED 0.431, PBLUC_HILL_SLOPE 11.3, PBLUC_R_SQUARED 0.541, read-out: LUCIFERASE INFECTION ASSAY - IC50) was found to be 8.01 µM.

On to `O=C(Nc1ccc2c(c1)OCO2)c1cnc(N2CCN(CCc3ccccc3)C2=O)o1`, for which the IC90 was greater than 10 µM. The IC50 (HEPG2TOX_HILL_SLOPE 7.5, HEPG2TOX_R_SQUARED 0.498, PBLUC_HILL_SLOPE 1.96, PBLUC_R_SQUARED 0.361, read-out: LUCIFERASE INFECTION ASSAY - IC50) turned out to be 3.61 µM.

With `O=C(Cc1ccccc1)Nc1ccccc1C(=O)Nc1nc2ccccc2[nH]1`, the IC90 is greater than 10 µM. The IC50 (HEPG2TOX_HILL_SLOPE 7.34, HEPG2TOX_R_SQUARED 0.432, read-out: LUCIFERASE INFECTION ASSAY - IC50) is greater than 10 µM.

With `O=C(Nc1cccc(C(F)(F)F)c1)Nc1ccccc1Sc1c(Cl)cncc1Cl`, the IC90 was greater than 7.2 µM. For the same compound, for the setting “HEPG2TOX_HILL_SLOPE 7.44, HEPG2TOX_R_SQUARED 0.649, PBLUC_HILL_SLOPE 2.82, PBLUC_R_SQUARED 0.349, read-out: LUCIFERASE INFECTION ASSAY - IC50”, the IC50 was 4.94 µM.

Consider `Nc1ccc(-c2cn3c(-c4ccc(Oc5ccccc5)cc4)cnc3cn2)cn1`, for which the IC90 is greater than 8.7 µM. In addition, the IC50 (HEPG2TOX_HILL_SLOPE 7.27, HEPG2TOX_R_SQUARED 0.167, PBLUC_HILL_SLOPE 11.9, PBLUC_R_SQUARED 0.186, read-out: LUCIFERASE INFECTION ASSAY - IC50) came out at 7.28 µM.

In the case of `COc1cc(OC)c(NC(=O)CN2CCC(c3c[nH]c4ccccc34)CC2)cc1Cl`, the IC90 was greater than 10 µM. Besides, the IC50 (HEPG2TOX_HILL_SLOPE 7.32, HEPG2TOX_R_SQUARED 0.598, PBLUC_HILL_SLOPE 4.32, PBLUC_R_SQUARED 0.304, read-out: LUCIFERASE INFECTION ASSAY - IC50) was 8.18 µM.

For `Cc1ccc(C(=O)c2ccccc2C(=O)OC(C)C(=O)N(Cc2ccccc2)Cc2ccccc2)cc1` (stereo not drawn), the IC90 was found to be 9.62 µM. The IC50 (HEPG2TOX_HILL_SLOPE 7.35, HEPG2TOX_R_SQUARED 0.243, PBLUC_HILL_SLOPE 15.7, PBLUC_R_SQUARED 0.159, read-out: LUCIFERASE INFECTION ASSAY - IC50) amounted to 8.36 µM.

Turning to `COCc1ccc(C(=O)Nc2ccc(-n3cnc4ccccc43)nc2)cc1`, the IC90 is greater than 10 µM. Moreover, the IC50 (HEPG2TOX_HILL_SLOPE 7.46, HEPG2TOX_R_SQUARED 0.472, PBLUC_HILL_SLOPE 11.4, PBLUC_R_SQUARED 0.343, read-out: LUCIFERASE INFECTION ASSAY - IC50) turned out to be 9.69 µM.

Turning to `C/C(=N\Nc1nc2ccccc2o1)c1ccc2ccccc2c1O`, the IC90 is greater than 10 µM. Moreover, where the note is “HEPG2TOX_HILL_SLOPE 7.42, HEPG2TOX_R_SQUARED 0.127, PBLUC_HILL_SLOPE 13.1, PBLUC_R_SQUARED 0.536, read-out: LUCIFERASE INFECTION ASSAY - IC50”, the IC50 was 8.85 µM.

Turning to `CCN(CC)c1ccc(/C=C(\C#N)C(=O)Nc2cccc(S(=O)(=O)N3CCCCC3)c2)cc1`, the IC90 was greater than 10 µM. Moreover, the IC50 (HEPG2TOX_HILL_SLOPE 7.51, HEPG2TOX_R_SQUARED 0.401, PBLUC_HILL_SLOPE 2.56, PBLUC_R_SQUARED 0.302, read-out: LUCIFERASE INFECTION ASSAY - IC50) worked out at 9.36 µM.

`CCCNC(=O)c1c(NC(=O)c2cccc(OC)c2)nc2ccc(C)cn12`: the IC90 was found to be 8.77 µM. In addition, the IC50 (HEPG2TOX_HILL_SLOPE 7.34, HEPG2TOX_R_SQUARED 0.277, PBLUC_HILL_SLOPE 3.84, PBLUC_R_SQUARED 0.328, read-out: LUCIFERASE INFECTION ASSAY - IC50) turned out to be 4.95 µM.

As to `NC(=O)c1ccc(-c2cc(-c3ccccc3)cnc2N)cc1`, the IC90 is 4.22 µM. Under “HEPG2TOX_HILL_SLOPE 7.43, HEPG2TOX_R_SQUARED 0.0328, PBLUC_HILL_SLOPE 16.6, PBLUC_R_SQUARED 0.439, read-out: LUCIFERASE INFECTION ASSAY - IC50”, the IC50 came out at 3.7 µM.
